# Measurements published in US8383655B2, “Modulators of pharmacokinetic properties of therapeutics” (Gilead Sciences, Inc., priority 2006, dated 2013).
# Tested on: HIV-1 strain IIIB
# Test: Anti-HIV-1 cell culture assay (EC50), XTT cytopathic effect
# Type: cell-based
# Conditions: Human immunodeficiency virus 1, 120 h; MT2 cells infected with wild-type HIV-1 IIIB, 5 days; read-out: protease inhibition activity represented by HIV EC50
# Experimental: The assay is based on quantification of the HIV-1-associated cytopathic effect by a colorimetric detection of the viability of virus-infected cells in the presence or absence of tested inhibitors. HIV-1-induced cell death was determined using a metabolic substrate 2,3-bis(2-methoxy-4-nitro-5-sulfophenyl)-2H-tetrazolium-5-carboxanilide (XTT) which is converted only by intact cells into a product with specific absorption characteristics as described by Weislow O S, Kiser R, Fine D L, Bader J, Shoemaker R H and Boyd M R, J. Natl. Cancer Inst.
# The infected cells in culture media were distributed into a 96-well plate (20,000 cells in 100 μl/well), and incubated in the presence of a set of solutions containing 5-fold serial dilutions of the tested inhibitor (100 μl/well) for 5 days at 37° C. […]
# To determine the antiviral activity of the tested inhibitors, a substrate XTT solution (6 mL per assay plate) at a concentration of 2 mg/mL in a phosphate-buffered saline pH 7.4 was heated in water-bath for 5 min at 55° C. before 50 μl of N-methylphenazonium methasulfate (5 μg/mL) was added per 6 mL of XTT solution. […] Viability, as determined by the amount of XTT metabolites produced, was quantified spectrophotometrically by the absorbance at 450 nm (with subtraction of the background absorbance at 650 nm).
smiles,measurement,value
CC(C)c1nc(CN(C)C(=O)N[C@@H](CCN2CCOCC2)C(=O)N[C@H](CC[C@H](Cc2ccccc2)NC(=O)OCc2cncs2)Cc2ccccc2)cs1 [Example S],EC50,> 20 µM
